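In this assay, cells in 96-well plates receive the compound at five concentrations for 48 hours. Endpoints are linearly interpolated between the surrounding concentrations. At the TGI there is no net growth.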

Some test systems named below: KM12 colon; SK-MEL-5 melanoma; NCI-H460 lung; MDA-N; SNB-19 CNS; HCT-116 colon; RPMI-8226 leukemia; UACC-62 melanoma; HOP-92 NSCLC; NCI/ADR-RES ovarian.
What all share (test): inhibition of tumour cell growth, NCI panel, 48 h

For the compound `O=C(Cc1ccccc1)Nn1c(-c2ccccc2)nc2ccccc2c1=O`, the TGI in the test on KM12 colon, with SK-MEL-5 melanoma, in the test on NCI-H460 lung, with MDA-N, in the test on SNB-19 CNS and with HCT-116 colon was over 100 µM each time. Besides, the TGI with RPMI-8226 leukemia, in the test on UACC-62 melanoma and with HOP-92 NSCLC was over 100 µM in each case.
Regarding `COc1ccc(CN=C(N)N)c2ccccc12`, the TGI in the test with NCI/ADR-RES ovarian was over 100 µM; in the test on KM12 colon, over 100 µM; with SK-MEL-5 melanoma, 38 µM; in the test with MDA-N, over 100 µM; in the test with SNB-19 CNS, over 100 µM; with HCT-116 colon it was over 100 µM. The TGI in the test on RPMI-8226 leukemia and with UACC-62 melanoma was over 100 µM each time.
With `CC(C)C(N)=O`, the TGI in the test on KM12 colon, in the test with SK-MEL-5 melanoma, with NCI-H460 lung, with HCT-116 colon, in the test with RPMI-8226 leukemia and with UACC-62 melanoma was over 5000 µM throughout. The TGI in the test with HOP-92 NSCLC is over 5000 µM.
In the case of `CC(C)C1=CC23CCC4C(C)(C(=O)O)CCCC4(C)C2CC1C1C(=O)N(c2ccccc2)C(=O)C13` (stereo unspecified), the TGI in the test on KM12 colon, in the test on SK-MEL-5 melanoma, in the test on NCI-H460 lung, in the test with SNB-19 CNS, in the test with HCT-116 colon and in the test with RPMI-8226 leukemia was over 100 µM in each case. The TGI in the test on UACC-62 melanoma was over 100 µM; with HOP-92 NSCLC it was 97.4 µM.
As for `CC(=O)N=C1N(/C=C2\C(=O)Oc3ccccc3C2=O)C(=O)/C(=C/c2ccc(Cl)cc2Cl)N1C`, the TGI with NCI/ADR-RES ovarian, in the test on KM12 colon, in the test with SK-MEL-5 melanoma, in the test with HCT-116 colon, with RPMI-8226 leukemia and with UACC-62 melanoma was over 100 µM throughout.
Consider `CC1=C(C(=O)c2ccccc2)C23C(=O)N(c4ccccc4)C(=O)C2=C(O)C=CC3(O)N1` (stereo unspecified), for which the TGI is over 100 µM with NCI/ADR-RES ovarian; 53.5 µM in the test with KM12 colon; 41.9 µM in the test on SK-MEL-5 melanoma; over 100 µM in the test with NCI-H460 lung; over 100 µM in the test with SNB-19 CNS; over 100 µM in the test on HCT-116 colon. For the same compound, the values for the TGI with RPMI-8226 leukemia, in the test on UACC-62 melanoma and with HOP-92 NSCLC were over 100 µM, 48 µM and 60 µM, respectively.
As for `CC(=O)NC1=C[C@@H]([C@H]2COC(C)(C)O2)OC1=O`, the TGI with NCI/ADR-RES ovarian, with KM12 colon, in the test with SK-MEL-5 melanoma, in the test with NCI-H460 lung, in the test on SNB-19 CNS and in the test on HCT-116 colon was over 100 µM in each case. Moreover, the TGI in the test on RPMI-8226 leukemia, with UACC-62 melanoma and in the test with HOP-92 NSCLC was over 100 µM each time.
Regarding `COc1cc2cc(C(=O)N3CC(CCl)c4c3cc(N)c3ccccc43)[nH]c2c(OC)c1OC` (stereo unspecified), the TGI in the test on NCI/ADR-RES ovarian is under 0.01 µM; in the test with KM12 colon, 0.0207 µM; in the test on SNB-19 CNS, 10.5 µM; with HCT-116 colon it was 1.08 µM; with RPMI-8226 leukemia, under 0.0107 µM; with UACC-62 melanoma, under 0.01 µM. Moreover, the TGI in the test with HOP-92 NSCLC worked out at 0.275 µM.
For `O=C1CC(c2cccc(Br)c2)n2cccc21` (stereo unspecified), the TGI with NCI/ADR-RES ovarian, in the test with KM12 colon, in the test with SNB-19 CNS, with HCT-116 colon, with RPMI-8226 leukemia and with UACC-62 melanoma was over 100 µM throughout. The compound also yielded a TGI in the test with HOP-92 NSCLC of over 100 µM.
As to `CC(=O)OC1COC(Nc2nc(NCc3ccccc3)n(C)c(=O)c2N=O)C(OC(C)=O)C1OC(C)=O` (stereo unspecified), the TGI in the test with NCI/ADR-RES ovarian, in the test on KM12 colon, with SK-MEL-5 melanoma, in the test with NCI-H460 lung, in the test with MDA-N and in the test on SNB-19 CNS was over 10 µM in each case. In addition, the TGI in the test on HCT-116 colon, in the test with RPMI-8226 leukemia and in the test on UACC-62 melanoma was over 10 µM in each case.
`NC1=CN2c3ccccc3N(CC(=O)O)C2C=C1` (stereo unspecified): the TGI in the test with NCI/ADR-RES ovarian, in the test with KM12 colon, in the test on SK-MEL-5 melanoma, in the test on NCI-H460 lung, in the test on SNB-19 CNS and in the test with HCT-116 colon was over 100 µM throughout. Moreover, the TGI in the test on RPMI-8226 leukemia, with UACC-62 melanoma and with HOP-92 NSCLC was over 100 µM in each case.
On to `COc1cc2c(cc1OC)C1(COc3cc(O)c(O)c(O)c3C1=O)C2` (stereo unspecified), for which the TGI with NCI/ADR-RES ovarian, with KM12 colon, in the test with SK-MEL-5 melanoma, in the test on NCI-H460 lung, with MDA-N and with SNB-19 CNS was over 50 µM in each case. Moreover, the TGI in the test with HCT-116 colon, in the test on RPMI-8226 leukemia and with UACC-62 melanoma was over 50 µM throughout.
As for `COC(C)(C)C1(O)CCC(C)CC1=O` (stereo unspecified), the TGI with KM12 colon, in the test with SK-MEL-5 melanoma, in the test with NCI-H460 lung, in the test on MDA-N, in the test with SNB-19 CNS and in the test on HCT-116 colon was over 100 µM in each case. Further, the TGI in the test on RPMI-8226 leukemia, in the test with UACC-62 melanoma and with HOP-92 NSCLC was over 100 µM each time.
Take `O=C(N/N=C(/COc1ccc([N+](=O)[O-])cc1)N=Cc1ccncc1)c1ccncc1`: the TGI in the test with NCI/ADR-RES ovarian, with KM12 colon, with NCI-H460 lung, in the test with MDA-N, in the test on SNB-19 CNS and in the test on HCT-116 colon was over 100 µM in each case. Further, the TGI with RPMI-8226 leukemia and with UACC-62 melanoma was over 100 µM throughout.
As for `O=C(O)Cc1ccc2[nH]c(O)c(C3=Nc4ccccc4C3=O)c2c1`, the TGI is over 100 µM in the test with NCI/ADR-RES ovarian; over 100 µM in the test with KM12 colon; 55.6 µM with SK-MEL-5 melanoma; over 100 µM with NCI-H460 lung; over 100 µM with MDA-N; over 100 µM with SNB-19 CNS. The TGI is 68.5 µM in the test with HCT-116 colon, over 100 µM in the test on RPMI-8226 leukemia and 85.7 µM with UACC-62 melanoma.
Consider `CC(=O)N=C1N(/C=C2\C(=O)Oc3ccccc3C2=O)C(=O)/C(=C/c2ccc(NC(C)=O)cc2)N1C`, for which the TGI in the test on NCI/ADR-RES ovarian, in the test on KM12 colon, in the test on SK-MEL-5 melanoma, with NCI-H460 lung, in the test with MDA-N and with HCT-116 colon was over 100 µM each time. Besides, the TGI in the test on RPMI-8226 leukemia and in the test on UACC-62 melanoma was over 100 µM each time.

These data come from PubChem BioAssay (NCI).
